{"source": "paper PMC2720045", "about": "(Proteins, 2009)", "key": {"P. falciparum": {"system": "P. falciparum", "settings": "cited from earlier work"}, "[1]": {"target": "T1, PRD25N (HIV-1 protease D25N mutant) (Human immunodeficiency virus type 1, UniProt P03367, D525N, form not given)", "test": "DSC thermal denaturation of PRD25N with inhibitors", "assay_type": "binding", "settings": "inhibitor 28 μM, pH 4.8-5.0; unliganded PRD25N 58.4"}, "porcine pepsin [2]": {"target": "T2, porcine pepsin (Sus scrofa, UniProt P00791)", "T2 sequence (P00791 60-385)": "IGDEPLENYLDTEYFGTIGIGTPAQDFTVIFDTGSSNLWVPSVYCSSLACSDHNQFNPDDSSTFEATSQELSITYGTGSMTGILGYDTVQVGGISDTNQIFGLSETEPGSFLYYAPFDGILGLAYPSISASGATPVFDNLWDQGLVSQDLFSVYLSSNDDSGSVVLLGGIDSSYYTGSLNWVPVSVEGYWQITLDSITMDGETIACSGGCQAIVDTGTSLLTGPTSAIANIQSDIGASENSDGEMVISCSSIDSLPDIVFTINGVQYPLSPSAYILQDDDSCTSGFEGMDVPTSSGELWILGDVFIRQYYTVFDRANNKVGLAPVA", "test": "Kinetic inhibition of pepsin", "assay_type": "biochemical", "settings": "for inhibition at 16 µM: pH 3, read-out: Inhibition of pepsin under the screening conditions; for Inhibition of pepsin under the screening conditions: 175 μM substrate, pH 3.0-3.2, 28 °C"}, "porcine pepsin [3]": {"target": "T2, porcine pepsin", "test": "ITC titration of pepsin with inhibitors", "assay_type": "binding", "settings": "for binding constant (KL) from curve fitting of ITC data, pepsin / stoichiometry of binding to pepsin: 28 °C; for binding constant (KL) from curve fitting of ITC data, pepsin: 50 mM sodium formate pH 3; for stoichiometry of binding to pepsin: pH 3"}, "[4]": {"target": "PRD29N (HIV-1 protease D29N mutant) (Human immunodeficiency virus type 1, UniProt P03367, D529N, form not given)", "settings": "inhibitor 28 μM, pH 4.8-5.0; unliganded PRD29N 59.0"}, "[5]": {"target": "T3, mature HIV-1 protease (PR) (Human immunodeficiency virus type 1, UniProt P03367)", "settings": "cited from earlier work; for Binding constant (Ka), PR / ΔH of binding, PR / −TΔS of binding, PR: ITC, pH 5; for pKd: read-out: KL at 25 °C PR (lit.), 25 °C"}, "porcine pepsin [6]": {"target": "T2, porcine pepsin", "test": "DSC of pepsin with inhibitors", "assay_type": "binding", "settings": "DSC pH 3; […] (APV) or 2-fold (Ac-PEP) molar excess; unliganded pepsin Tm 74.2"}, "[7]": {"system": "PRD25N (HIV-1 protease D25N mutant)", "test": "DSC thermal denaturation of PRD25N with inhibitors", "assay_type": "binding", "settings": "DSC"}, "[8]": {"target": "T3, mature HIV-1 protease (PR)", "settings": "cited from earlier work"}, "[9]": {"target": "T1, PRD25N (HIV-1 protease D25N mutant)", "settings": "cited from earlier work"}, "[10]": {"settings": "Tm with inhibitor minus Tm without, twofold molar excess"}}, "note": "pKd, pKi: −log10 of the molar value. “Also recorded” adds a separate entry of the source. Read-outs that look alike come from different tables or passages of the source."}
{"compound": "CC(C)CN(C[C@@H](O)[C@H](Cc1ccccc1)NC(=O)O[C@H]1CCOC1)S(=O)(=O)c1ccc(N)cc1", "note": "[APV, Amprenavir]", "values": [{"measurement": "growth of P. falciparum", "setting": "P. falciparum", "value": "did not inhibit"}, {"measurement": "Tm PRD25N", "setting": "[1]", "value": 58.7, "unit": "°C"}, {"measurement": "pKi", "setting": "porcine pepsin [2]", "value": 6.52}, {"measurement": "inhibition at 16 µM", "setting": "porcine pepsin [2]", "value": "75 to 95", "unit": "%"}, {"measurement": "pKd", "setting": "porcine pepsin [3]", "value": 6.74}, {"measurement": "binding constant (KL) from curve fitting of ITC data, pepsin", "setting": "porcine pepsin [3]", "value": "(5.5 ± 0.5) × 10^6 M"}, {"measurement": "stoichiometry of binding to pepsin", "setting": "porcine pepsin [3]; ITC", "value": "0.97 ± 0.004"}, {"measurement": "Binding constant (Ka), pepsin", "setting": "porcine pepsin [3]; ITC, pH 3, 28 °C", "value": "(5.45 ± 0.5) × 10^6 M^−1"}, {"measurement": "ΔH of binding, pepsin", "setting": "porcine pepsin [3]; ITC, pH 3, 28 °C", "value": "-4.2 ± 0.3", "unit": "kcal/mol"}, {"measurement": "−TΔS of binding, pepsin", "setting": "porcine pepsin [3]; ITC, pH 3, 28 °C", "value": -5.1, "unit": "kcal/mol"}, {"measurement": "Tm PRD29N", "setting": "[4]", "value": 67.5, "unit": "°C"}, {"measurement": "Binding constant (Ka), PR", "setting": "[5]", "value": "(5.0 ± 0.3) × 10^9 M^−1"}, {"measurement": "ΔH of binding, PR", "setting": "[5]", "value": -6.9, "unit": "kcal/mol"}, {"measurement": "−TΔS of binding, PR", "setting": "[5]", "value": -6.3, "unit": "kcal/mol"}, {"measurement": "ΔTm pepsin", "setting": "porcine pepsin [6]", "value": 2.7, "unit": "°C"}]}
{"compound": "COC(=O)N[C@H](C(=O)N[C@@H](Cc1ccccc1)[C@@H](O)CN(Cc1ccc(-c2ccccn2)cc1)NC(=O)[C@@H](NC(=O)OC)C(C)(C)C)C(C)(C)C", "note": "[ATV, Atazanavir]", "values": [{"measurement": "Tm PRD25N", "setting": "[1]", "value": 61.4, "unit": "°C"}, {"measurement": "Inhibition of pepsin under the screening conditions", "setting": "porcine pepsin [2]; 16 μM inhibitor", "value": "undetected; also recorded: no detectable inhibition; also recorded: did not inhibit"}, {"measurement": "Tm PRD29N", "setting": "[4]", "value": 71.7, "unit": "°C"}, {"measurement": "pKd", "setting": "[5]", "value": 10.46}]}
{"compound": "O=C1N(Cc2ccc(CO)cc2)[C@H](Cc2ccccc2)[C@H](O)[C@@H](O)[C@@H](Cc2ccccc2)N1Cc1ccc(CO)cc1", "note": "[DMP323]", "values": [{"measurement": "ΔTm ratio ΔTm(PR)/ΔTm(PRD25N)", "setting": "[7]", "value": "1-2"}, {"measurement": "Tm PRD25N", "setting": "[1]", "value": 67.3, "unit": "°C"}, {"measurement": "Inhibition of pepsin under the screening conditions", "setting": "porcine pepsin [2]; 24 μM inhibitor", "value": "undetected"}, {"measurement": "Tm PRD29N", "setting": "[4]", "value": 69.2, "unit": "°C"}, {"measurement": "pKd", "setting": "[5]", "value": 8.42}]}
{"compound": "CC(C)CN(C[C@@H](O)[C@H](Cc1ccccc1)NC(=O)O[C@H]1CO[C@H]2OCC[C@H]21)S(=O)(=O)c1ccc(N)cc1", "note": "[DRV, Darunavir]", "values": [{"measurement": "pKi", "setting": "porcine pepsin [2]", "value": 5.67}, {"measurement": "pKd", "setting": "porcine pepsin [3]", "value": 5.81}, {"measurement": "difference in ΔG for binding to the two enzymes (PR and pepsin)", "setting": "porcine pepsin [3]", "value": 7200, "unit": "kcal/mol"}, {"measurement": "binding constant (KL) from curve fitting of ITC data, pepsin", "setting": "porcine pepsin [3]", "value": "(6.5 ± 0.6) × 10^5 M"}, {"measurement": "stoichiometry of binding to pepsin", "setting": "porcine pepsin [3]; ITC", "value": "0.90 ± 0.01"}, {"measurement": "−TΔS of binding, pepsin", "setting": "porcine pepsin [3]; ITC, pH 3, 28 °C", "value": -2.0, "unit": "kcal/mol"}, {"measurement": "Tm PRD29N", "setting": "[4]", "value": 72.7, "unit": "°C"}, {"measurement": "−TΔS of binding, PR", "setting": "[5]", "value": -3.1, "unit": "kcal/mol"}, {"measurement": "ΔTm PR", "setting": "[8]; [10]", "value": 22.4, "unit": "°C"}, {"measurement": "Tm PR", "setting": "[8]; twofold molar excess of inhibitor, unliganded PR 65.7", "value": 88.1, "unit": "°C"}, {"measurement": "ΔTm PRD25N", "setting": "[9]; [10]", "value": 3.1, "unit": "°C"}, {"measurement": "Tm PRD25N", "setting": "[9]; twofold molar excess of inhibitor, unliganded PRD25N 58.4", "value": 61.5, "unit": "°C"}]}
{"compound": "CC(C)(C)NC(=O)[C@@H]1CN(Cc2cccnc2)CCN1C[C@@H](O)C[C@@H](Cc1ccccc1)C(=O)N[C@H]1c2ccccc2C[C@H]1O", "note": "[INV, Indinavir]", "values": [{"measurement": "Inhibition of pepsin under the screening conditions", "setting": "porcine pepsin [2]; 16 μM inhibitor", "value": "undetected; also recorded: did not inhibit"}]}
{"compound": "Cc1cccc(C)c1OCC(=O)N[C@@H](Cc1ccccc1)[C@@H](O)C[C@H](Cc1ccccc1)NC(=O)[C@H](C(C)C)N1CCCNC1=O", "note": "[LPV, Lopinavir]", "values": [{"measurement": "inhibition at 16 µM", "setting": "porcine pepsin [2]", "value": "≤ 50", "unit": "%"}]}
{"compound": "Cc1c(O)cccc1C(=O)N[C@@H](CSc1ccccc1)[C@H](O)CN1C[C@H]2CCCC[C@H]2C[C@H]1C(=O)NC(C)(C)C", "note": "[NFV, Nelfinavir]", "values": [{"measurement": "inhibition at 16 µM", "setting": "porcine pepsin [2]", "value": "≤ 50", "unit": "%"}]}
{"compound": "CC(C)c1nc(CN(C)C(=O)N[C@H](C(=O)N[C@@H](Cc2ccccc2)C[C@H](O)[C@H](Cc2ccccc2)NC(=O)OCc2cncs2)C(C)C)cs1", "note": "[RTV, Ritonavir]", "values": [{"measurement": "Tm PRD25N", "setting": "[1]", "value": 61.1, "unit": "°C"}, {"measurement": "inhibition at 16 µM", "setting": "porcine pepsin [2]", "value": "75 to 95", "unit": "%"}, {"measurement": "Tm PRD29N", "setting": "[4]", "value": 66.1, "unit": "°C"}, {"measurement": "Binding constant (Ka), PR", "setting": "[5]", "value": "(1.0 ± 0.1) × 10^10 M^−1"}, {"measurement": "ΔH of binding, PR", "setting": "[5]", "value": -4.3, "unit": "kcal/mol"}, {"measurement": "−TΔS of binding, PR", "setting": "[5]", "value": -9.4, "unit": "kcal/mol"}]}
{"compound": "CC(C)(C)NC(=O)[C@@H]1C[C@@H]2CCCC[C@@H]2CN1C[C@@H](O)[C@H](Cc1ccccc1)NC(=O)[C@H](CC(N)=O)NC(=O)c1ccc2ccccc2n1", "note": "[SQV, Saquinavir]", "values": [{"measurement": "Tm PRD25N", "setting": "[1]", "value": 62.6, "unit": "°C"}, {"measurement": "inhibition at 16 µM", "setting": "porcine pepsin [2]", "value": "≤ 50", "unit": "%"}, {"measurement": "Tm PRD29N", "setting": "[4]", "value": 72.3, "unit": "°C"}]}
{"compound": "CCC[C@@]1(CCc2ccccc2)CC(O)=C([C@H](CC)c2cccc(NS(=O)(=O)c3ccc(C(F)(F)F)cn3)c2)C(=O)O1", "note": "[TPV, Tipranavir]", "values": [{"measurement": "inhibition at 16 µM", "setting": "porcine pepsin [2]", "value": "≤ 50", "unit": "%"}]}
{"compound": "acetyl pepstatin [Ac-PEP]", "values": [{"measurement": "Tm PRD25N", "setting": "[1]", "value": 58.8, "unit": "°C"}, {"measurement": "Tm PRD29N", "setting": "[4]", "value": 58.3, "unit": "°C"}, {"measurement": "pKd", "setting": "[5]", "value": 6.36}]}
